Measured values as given in article PMC5761471 (Journal of Pharmaceutical Analysis, 2014).

Key:
[1] = Bioequivalence study, oral 400 mg raltegravir tablets; format: in vivo, human; settings: healthy Indian subjects
[2] = stated, not tested in this paper; cited from earlier work
[3] = Stability of raltegravir in spiked human plasma and processed extracts; format: in vitro ADME; settings: n=6
[4] = Stability of standard stock solutions; format: physicochemical; settings: stock solution in methanol, 25 °C
[5] = cited from earlier work
[6] = Bench-top, room temperature (25 °C), 8 h, nominal 6.0 ng/mL
[7] = Bench-top, room temperature (25 °C), 8 h, nominal 5000 ng/mL
[8] = Dry extract in deep freezer at −20 °C for 65 h, nominal 6.0 ng/mL
[9] = Dry extract in deep freezer at −20 °C for 65 h, nominal 5000 ng/mL
[10] = Freeze-thaw after 5th cycle at −20 °C, nominal 6.0 ng/mL
[11] = Freeze-thaw after 5th cycle at −20 °C, nominal 5000 ng/mL
[12] = Freeze-thaw after 5th cycle at −70 °C, nominal 6.0 ng/mL
[13] = Freeze-thaw after 5th cycle at −70 °C, nominal 5000 ng/mL
[14] = Long-term at −20 °C for 42 days, nominal 6.0 ng/mL
[15] = Long-term at −20 °C for 42 days, nominal 5000 ng/mL
[16] = Long-term at −70 °C for 42 days, nominal 6.0 ng/mL
[17] = Long-term at −70 °C for 42 days, nominal 5000 ng/mL
[18] = Wet extract (autosampler) at 4 °C for 65 h, nominal 6.0 ng/mL
[19] = Wet extract (autosampler) at 4 °C for 65 h, nominal 5000 ng/mL
[20] = Wet extract at 25 °C for 4 h, nominal 6.0 ng/mL
[21] = Wet extract at 25 °C for 4 h, nominal 5000 ng/mL

Cc1nnc(C(=O)NC(C)(C)c2nc(C(=O)NCc3ccc(F)cc3)c(O[C@@H]3O[C@H](C(=O)O)[C@@H](O)[C@H](O)[C@H]3O)c(=O)n2C)o1 [RAL-Glu, raltegravir glucuronide]
presence of circulating metabolite in plasma of subject samples ([1]; up to 4 h after oral administration of the drug): complete absence | pharmacological activity [2]: pharmacologically inactive

Cc1nnc(C(=O)NC(C)(C)c2nc(C(=O)NCc3ccc(F)cc3)c(O)c(=O)n2C)o1 [raltegravir]
time required to reach peak plasma concentration ([1]; single 400 mg oral dose, fasting): ~ 2 h | Change [3, 6]: 7.17% | Mean stability sample ±SD [3, 6]: 6.43 ± 0.15 ng/mL | Change [3, 7]: −5.81% | Mean stability sample ±SD [3, 7]: 4709.67 ± 72.69 ng/mL | Change [3, 8]: 3.83% | Mean stability sample ±SD [3, 8]: 6.23 ± 0.25 ng/mL | Change [3, 9]: −2.52% | Mean stability sample ±SD [3, 9]: 4874.00 ± 183.04 ng/mL | Change [3, 10]: 2.83% | Mean stability sample ±SD [3, 10]: 6.17 ± 0.22 ng/mL | Change [3, 11]: −4.54% | Mean stability sample ±SD [3, 11]: 4773.50 ± 106.40 ng/mL | Change [3, 12]: 2.83% | Mean stability sample ±SD [3, 12]: 6.17 ± 0.24 ng/mL | Change [3, 13]: −3.90% | Mean stability sample ±SD [3, 13]: 4804.83 ± 218.23 ng/mL | Change [3, 14]: −1.00% | Mean stability sample ±SD [3, 14]: 5.94 ± 0.26 ng/mL | Change [3, 15]: −3.12% | Mean stability sample ±SD [3, 15]: 4844.00 ± 247.40 ng/mL | Change [3, 16]: 3.33% | Mean stability sample ±SD [3, 16]: 6.20 ± 0.23 ng/mL | Change [3, 17]: −2.77% | Mean stability sample ±SD [3, 17]: 4861.50 ± 315.59 ng/mL | Change [3, 18]: 4.00% | Mean stability sample ±SD [3, 18]: 6.24 ± 0.28 ng/mL | Change [3, 19]: −3.24% | Mean stability sample ±SD [3, 19]: 4838.17 ± 209.68 ng/mL | Change [3, 20]: 3.83% | Mean stability sample ±SD [3, 20]: 6.23 ± 0.25 ng/mL | Change [3, 21]: −0.81% | Mean stability sample ±SD [3, 21]: 4959.33 ± 287.84 ng/mL | short-term stability of stock solution (stable up to) [4]: up to 8 h | increase of area under the plasma-time curve (AUC) with a high fat meal [5]: about 19%
